A short description of data set [1]: lucigenin-reinforced xanthine oxidase test (radical binding, chemiluminescence). Type of data set: biochemical. Conditions: cell-free system. Here is the method: The property of binding reducing radicals, is measured in cell-free systems with a lucigenin-reinforced xanthine oxidase test on the basis of the conversion of hypoxanthine to uric acid. The O2-radicals produced in this process can be detected with lucigenin by relative chemiluminescence measurement. By the radical scavengers present, the O2-radicals are neutralised and the chemiluminescence yield reduced. […] An amount of 1 mg of the hyaluronic acid fragment according to the invention with a relative molar mass of 100 to 160 kD has a radical-binding activity which corresponds to that of 200 to 400 μg allopurinol. Hyaluronic acid with a relative molar mass of 1,800 kD has, on the other hand, a negligible radical-binding activity (Pierce, L. A., W. O. Tarnow-Mordi and I. A, Cree: Antibiotics Effects on Phagocyte Chemilunieszence in Vitro. In J. Clin. Lab. Res.- (1995) 25, 93-98).

The subject of data set [2] is HaCaT keratinocytes. The data set is described as follows: toxicity test: DNA synthesis performance by BrdU incorporation. Type of data set: cell-based, human. The following applies: 24-hour incubation. As for the experimental part:
In order to characterise the influence of hyaluronic acid fragments of differing relative molar mass on the proliferation behaviour of human keratinocytes (HaCaT keratinocytes—made available by Prof. Dr. Norbert E. Fusenig: Deutsches Krebsforschungsinstitut Heidelberg, Germany), the DNA synthesis performance is determined with the aid of BrdU incorporation (Cell Proliferation ELISA, BrdU calorimetric—Boehringer Mannheim, Mannheim, Germany) into the DNA after a 24-hour period of incubation. For the following hyaluronic acid fragments examined, no toxic reaction of the cells could be observed.

With hyaluronic acid, the radical-binding activity entry in data set [1] was “negligible”. Besides, in data set [2], the “toxic reaction of the cells / tolerance (DNA synthesis performance, BrdU incorporation)” value is “very good tolerance”.

Values taken from patent US6689349B1, “Skin protection agents containing a fragment mixture produced from hyaluronic acid by hydrolysis” (esparma GmbH, priority 1998, dated 2004).
